Data from patent US11241436B2, “Autophagy inducers for treatment of CNS conditions” (Northwestern University, priority 2017, dated 2022).

Assays:
[1] = tested on: HTT65Q and HTT103Q aggregates; assay: Filter trap assay of polyQ HTT aggregates in HeLa cells; type: cell-based
Procedure: Cells were transfected with nontargeting control (NC) or ATG7 siRNA 24 h prior to Rg2 treatment for another 24 h. HTT aggregates were analyzed by lysate filtration through 0.2 μm nitrocellulose membrane. Cells treated with tetracycline served as negative control.
ML246 promotes the removal of intracellular aggregates formed by polyglutamine (polyQ)-expansion proteins. HeLa cell lines stably expressing tetracycline-repressible expanded polyQ-repeat protein HTT (huntingtin) was used as a model, HTT65Q and HTT103Q. In contrast to the HTT protein with the normal number of glutamine repeats (HTT25Q), HTT65Q and HTT103Q formed insoluble polyQ aggregates larger than 0.2-μm diameter, which can be detected by filter trap assay. […] Fluorescence imaging further confirmed that ML246 administration decreased the number of cells positive for HTT aggregates, which is also in an ATG7-dependent manner (FIG. S6B).
Accordingly, whether Rg2 affects the clearance of proteinaceous inclusions in vitro was next determined, using HeLa cell lines expressing tetracycline-repressible expanded polyglutamine (polyQ)-repeat protein HTT (huntingtin), HTT65Q and HTT103Q. Unlike the HTT protein with the normal number of glutamine repeats (HTT25Q), HTT65Q and HTT103Q formed insoluble polyQ aggregates larger than 0.2-μm diameter, which were detected by filter trap assays (FIG. 5A).
Filter trap assay. HeLa cells stably expressing CFP-HTT25Q, CFP-HTT65Q and CFP-HTT103Q were treated with 100 ng/ml tetracycline (IBI Scientific, IB02200) for 48 h, or 0.5 μM ML246 for 24 h with control or ATG7 siRNA (GE Dharmacon ON-TARGETplus control or ATG7 SMARTpool siRNA) for 48 h. Cells were then collected and lysed in lysis buffer containing 0.5% NP-40 for 30 min at 4° C. After centrifugation, the pellet was digested with 0.5 mg/ml DNasel (in 20 mM Tris-Cl, pH 8.0) for 1 h at 37° C., and dissolved into lysates containing insoluble aggregates by 2% SDS, 50 mM DTT and 20 mM EDTA. The lysates were then added onto 0.2 μm nitrocellulose membrane that was pre-equilibrated with 2% SDS/TBS for 30 min, and were filtered through the membrane by gentle vacuum using the Bio-Dot SF microfiltration apparatus (Bio-Rad). The signal was detected by immunostaining with the HRP-conjugated GFP antibody (Santa Cruz Biotechnology, sc9996, 1:1000).

GFP-LC3 transgenic mice = assay: GFP-LC3 puncta in tissues of GFP-LC3 transgenic mice; type: in vivo, mouse; settings: for numbers of GFP-LC3 puncta (autophagosomes): mouse brain; for number of GFP-LC3 puncta (autophagosomes): brain frontal cortex, heart, liver and muscle
Source text: Results represent mean±s.d. Scale bar, 25 μm. N>100 cells or N2::4 mice.
Scale bar, 20 μm. Results represent mean±s.d. N≥4 mice.
Results represent mean±s.e.m. Statistics compare each value to the one with DMSO treatment. *, P<0.05; **, P<0.01; ***, P<0.001, t test. Scale bar: 20 μm.
To test this hypothesis, it was confirmed that Rg2 induces autophagy in vivo, by injecting Rg2 intraperitoneally (i.p.) into transgenic mice globally expressing GFP-LC3. […] Furthermore, in vivo autophagy induction by Rg2 via GFP-LC3 puncta assays in both muscle and brain was examined. […] Thus, the majority of Rg2 is not bound by plasma proteins and is freely available. Taken together, Rg2 was identified as a new in vivo autophagy inducer in vivo.
Autophagy analyses. For assessment of autophagy in vivo, 8-week old male WT and Becn 1FA/FA mice crossed to GFP-LC3 mice were exercised for 90 minutes, or starved for 48 h, and then anaesthetized by isoflurane and perfused with 4% PFA Brain and muscle samples were fixed in 4% PFA overnight, 15% sucrose for 4 h and 30% sucrose overnight before frozen sections were prepared. The number of GFP-LC3 puncta per unit area of tissue was quantified by fluorescence microscopy. Autophagy in vivo was also analyzed by western blot analysis of brain tissue extracts with antibodies against LC3 and p62/SQSTM1 (see below for details).

APP = assay: Expression of the precursor APP in brain of 5XFAD mice; type: in vivo, mouse
Procedure: (§1) Western blot analyses. Cell or mouse muscle and brain extracts were prepared in lysis buffer containing 50 mM Tris (pH 7.4), 150 mM NaCl, 1 mM EDTA, 1% Triton X-100, halt proteinase inhibitor cocktail (ThermoFisher Scientific) and halt phosphatase inhibitor cocktail (ThermoFisher Scientific), and subjected to western blot analysis with anti-LC3 (Novus Biologicals, NB100-2220), anti-SQSTM 1 (Abnova, H00008878-M01), anti-Af342 (Invitrogen; 700254), anti-APP (Biolegend; 803001), HRP-conjugated GFP antibody (Santa Cruz Biotechnology, sc9996), anti-HA (Cell Signaling Technology, C29F4), anti-ATG7 (Sigma Aldrich; A2856), anti-LDLR (Abeam, ab52818), anti-LRP 1 (Abeam, ab92544), and anti-ACTB/f3-actin-HRP (Santa Cruz Biotechnology, sc47778 HRP) antibodies. The band intensity was analyzed using the ImageJ software.

CB1R signaling = CB1R signaling in brain (phosphorylation of MEK and JNK) after chronic WIN; type: in vivo, mouse; settings: repeated WIN dosage 14 d, then acute WIN 1 h
Procedure: WT mice were treated with either daily WIN or vehicle for 14 d, and then subject to an acute dosage of WIN 1 h prior to collection of brain samples.
To investigate whether restoration of CB1R signaling underlies the behavioral regulation by autophagy activation, the level and functionality of CB1R in mouse brain after co-administration of chronic cannabinoids and autophagy inducers were analyzed. […] To determine whether the increased level of CB1R represents CB1R re-sensitization in the brain, the agonist-induced phosphorylation of signaling kinases downstream of CB1R after chronic WIN exposure were analyzed.

Hela cells = assay: Western blot detection of LC3 and p62 in Hela cells; type: cell-based
Procedure: as §1

N=c1c2c(-c3ccccc3)c(-c3ccccc3)n(Cc3ccccc3)c2ncn1[C@H]1CC[C@H](O)CC1 [ML246]
accumulation of HTT65Q and HTT103Q aggregates ([1]; 0.5 μM ML246, 24 h): decreased | reduction of HTT65Q and HTT103Q aggregates ([1]; ML246 with knockdown of ATG7): prevents this reduction | numbers of GFP-LC3 puncta (autophagosomes) (GFP-LC3 transgenic mice): markedly increased | expression of the precursor APP (APP; ML246 for 5 weeks): not affected | CB1R (CNR1) signaling: phosphorylation of MEK and JNK (CB1R signaling): rescued | levels of p62 (SQSTM1) (Hela cells): decreased

CC(C)=CCC[C@](C)(O)[C@H]1CC[C@]2(C)[C@@H]1[C@H](O)C[C@@H]1[C@@]3(C)CC[C@H](O)C(C)(C)[C@@H]3[C@@H](O[C@@H]3O[C@H](CO)[C@@H](O)[C@H](O)[C@H]3O[C@@H]3O[C@@H](C)[C@H](O)[C@@H](O)[C@H]3O)C[C@]12C [Rg2, ginsenoside Rg2]
accumulation of HTT65Q and HTT103Q aggregates ([1]; Rg2, 24 h): decreased accumulation | effect on HTT aggregates ([1]; Rg2 with knockdown of ATG7): abolished | number of GFP-LC3 puncta (autophagosomes) (GFP-LC3 transgenic mice; 10 mg/kg i.p.): significantly increases | number of GFP-LC3 puncta (autophagosomes) (GFP-LC3 transgenic mice; 20 mg/kg i.p.): significantly increases | duration of autophagy activity (GFP-LC3 transgenic mice; brain): at least 24 h | time of peak of autophagy activity (GFP-LC3 transgenic mice; brain): 4 h | numbers of GFP-LC3 puncta (autophagosomes) (GFP-LC3 transgenic mice): markedly increased | time of decline of autophagy to the basal level (GFP-LC3 transgenic mice; muscle): 8 to 16 h | time of peak of induced autophagy (GFP-LC3 transgenic mice; muscle): 4 h | expression of the precursor APP (APP; Rg2 for 16 weeks): remained unaffected | CB1R (CNR1) signaling: phosphorylation of MEK and JNK (CB1R signaling): rescued | levels of p62 (SQSTM1) (Hela cells): decreased
